Results reported in patent publication US10519140B2, “Indolin-2-one derivatives” (Hoffmann-La Roche Inc., priority 2015, dated 2019).
pIC50: −log10 of the molar value.

Target: T1, mouse ENT-1 transporter (Mus musculus, UniProt Q9JIM1)
T1 construct: expressed in transfected cells
T1 sequence (Q9JIM1 1-460): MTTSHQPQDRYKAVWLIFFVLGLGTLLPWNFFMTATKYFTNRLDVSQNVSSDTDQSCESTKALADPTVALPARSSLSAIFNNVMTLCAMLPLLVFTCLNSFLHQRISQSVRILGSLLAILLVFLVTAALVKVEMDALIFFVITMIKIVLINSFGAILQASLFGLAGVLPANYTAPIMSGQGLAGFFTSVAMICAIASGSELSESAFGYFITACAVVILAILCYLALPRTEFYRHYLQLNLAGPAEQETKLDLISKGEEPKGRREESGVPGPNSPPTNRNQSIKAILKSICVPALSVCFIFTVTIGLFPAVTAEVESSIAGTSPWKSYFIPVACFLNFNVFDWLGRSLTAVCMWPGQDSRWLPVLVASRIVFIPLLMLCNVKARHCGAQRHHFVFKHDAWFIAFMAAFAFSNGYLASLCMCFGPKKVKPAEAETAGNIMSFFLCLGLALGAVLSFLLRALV
Test: Adenosine transport activity (ENT1, [3H]-adenosine uptake inhibition)
Assay type: cell-based
Conditions: stable cells expressing mouse ENT-1; [2,8-3H]-adenosine 6 nM, 20 min
Protocol: To measure adenosine transport activity of ENT-1 mammalian cells, stable cells expressing the mouse ENT-1 transporter were plated on day 1 in 96-well culture plates at the density of 60,000 cells/well, in complete DMEM/F12 medium supplemented with glutamax, 10% FBS and 10 μg/ml puromycin. On day 2, the medium was aspirated and the cells were washed twice with uptake buffer (10 mM Hepes-Tris, pH 7.4 containing 150 mM NaCl, 1 mM CaCl2, 2.5 mM KCl, 2.5 mM MgSO4, 10 mM D-glucose) (UB). For inhibition experiments, cells were then incubated at RT with various concentrations of compounds with 1% DMSO final. Non-specific uptake was defined in the presence of 10 μM S-(4-Nitrobenzyl)-6-thioinosine (NBTI, Sigma Cat #N2255). A solution containing [2,8-^3H]-adenosine 6 nM (40 Ci/mmol, American Radiolabeled chemicals Inc, Cat #ART 0287A) was then immediately added to the wells. The plates were then incubated for 20 min with gentle shaking and the reaction was stopped by aspiration of the mixture and washing (three times) with ice-cold UB. The cells were lysed by the addition of scintillation liquid, shaken 3 hours and the radioactivity in the cells was estimated using a microplates scintillation counter (TopCount NXT, Packard).

Structure (SMILES)	pIC50
Cc1ncc(-c2ccc3c(c2)N(c2cc4c(nn2)N(C2CC2)C(=O)C4(C)C)C(=O)C3(C)C)cn1 [Example 53, 7-Cyclopropyl-3-(3,3-dimethyl-6-(2-methylpyrimidin-5-yl)-2-oxoindolin-1-yl)-5,5-dimethyl-5H-pyrrolo[2,3-c]pyridazin-6(7H)-one]	6.00
Cc1ncc(-c2ccc3c(c2)N(c2ccc4c(c2F)N(C)C(=O)C4(C)C)C(=O)C3(C)C)cn1 [Example 46, 7′-Fluoro-1′,3,3,3′,3′-pentamethyl-6-(2-methylpyrimidin-5-yl)-[1,6′-biindoline]-2,2′-dione]	6.61
Cc1ncc(-c2ccc3c(c2)N(c2cnc4[nH]c(=O)[nH]c4n2)C(=O)C3(C)C)cn1 [Example 36, 5-(3,3-Dimethyl-6-(2-methylpyrimidin-5-yl)-2-oxoindolin-1-yl)-1H-imidazo[4,5-b]pyrazin-2(3H)-one]	6.43
CC(=O)Nc1cncc(N2C(=O)C(C)(C)c3ccc(-c4cnc(C)nc4)cc32)n1 [Example 5, N-(6-(3,3-Dimethyl-6-(2-methylpyrimidin-5-yl)-2-oxoindolin-1-yl)pyrazin-2-yl)acetamide]	7.32
Cc1ncc(-c2ccc3c(c2)N(c2cncc(N4C(=O)O[C@H]5CC[C@H]54)n2)C(=O)C3(C)C)cn1 (racemic) [Example 55, rac-(1S,5R)-4-(6-(3,3-Dimethyl-6-(2-methylpyrimidin-5-yl)-2-oxoindolin-1-yl)pyrazin-2-yl)-2-oxa-4-azabicyclo[3.2.0]heptan-3-one]	7.61
Cc1ncc(-c2ccc3c(c2)N(c2cncc(N)n2)C(=O)C3(C)C)cn1 [Example 2, 1-(6-Aminopyrazin-2-yl)-3,3-dimethyl-6-(2-methylpyrimidin-5-yl)indolin-2-one]	6.79
Cc1ncc(-c2ccc3c(c2)N(c2ccc4c(c2)N(C2COC2)C(=O)C4(C)C)C(=O)C3(C)C)cn1 [Example 59, 3,3,3′,3′-Tetramethyl-6-(2-methylpyrimidin-5-yl)-1′-(oxetan-3-yl)-[1,6′-biindoline]-2,2′-dione]	6.69
Cc1ncc(-c2ccc3c(c2)N(c2cncc(N4CCC(O)CC4)n2)C(=O)C3(C)C)cn1 [Example 9, 1-(6-(4-Hydroxypiperidin-1-yl)pyrazin-2-yl)-3,3-dimethyl-6-(2-methylpyrimidin-5-yl)indolin-2-one]	7.66
Cc1ncc(-c2ccc3c(c2)N(c2cncc(N4CCC(F)(F)CC4)n2)C(=O)C3(C)C)cn1 [Example 6, 1-(6-(4,4-Difluoropiperidin-1-yl)pyrazin-2-yl)-3,3-dimethyl-6-(2-methylpyrimidin-5-yl)indolin-2-one]	7.49
Cc1ncc(-c2ccc3c(c2)N(c2cnc4c(n2)[nH]c(=O)n4C)C(=O)C3(C)C)cn1 [Example 35, 5-(3,3-Dimethyl-6-(2-methylpyrimidin-5-yl)-2-oxoindolin-1-yl)-1-methyl-1H-imidazo[4,5-b]pyrazin-2(3H)-one]	6.30
Cc1ncc(-c2ccc3c(c2)N(c2ccc4nnn(C)c4c2)C(=O)C3(C)C)cn1 [Example 48, 3,3-Dimethyl-1-(1-methyl-1H-benzo[d][1,2,3]triazol-6-yl)-6-(2-methylpyrimidin-5-yl)indolin-2-one]	6.73
Cc1ncc(-c2ccc3c(c2)N(c2ccnc(N4CCOCC4)n2)C(=O)C3(C)C)cn1 [Example 23, 3,3-Dimethyl-6-(2-methylpyrimidin-5-yl)-1-(2-morpholinopyrimidin-4-yl)indolin-2-one]	7.28
Cc1ncc(-c2ccc3c(c2)N(c2cnc(N4CCOCC4)cn2)C(=O)C3(C)C)cn1 [Example 49, 3,3-Dimethyl-6-(2-methylpyrimidin-5-yl)-1-(5-morpholinopyrazin-2-yl)indolin-2-one]	6.38
Cc1ncc(-c2ccc3c(c2)N(c2cncc(N4CCOCC4)c2)C(=O)C3(C)C)cn1 [Example 26, 3,3-Dimethyl-6-(2-methylpyrimidin-5-yl)-1-(5-morpholinopyridin-3-yl)indolin-2-one]	7.75
Cc1ncc(-c2ccc3c(c2)N(c2cncc(NC4CC4)n2)C(=O)C3(C)C)cn1 [Example 7, 1-(6-(Cyclopropylamino)pyrazin-2-yl)-3,3-dimethyl-6-(2-methylpyrimidin-5-yl)indolin-2-one]	7.40
Cc1ncc(-c2ccc3c(c2)N(c2cncc(N4CC(C)(C)OC4=O)n2)C(=O)C3(C)C)cn1 [Example 56, 3-(6-(3,3-Dimethyl-6-(2-methylpyrimidin-5-yl)-2-oxoindolin-1-yl)pyrazin-2-yl)-5,5-dimethyloxazolidin-2-one]	6.69
Cc1ncc(-c2ccc3c(c2)N(c2ccc(C)c(N4CCOCC4)n2)C(=O)C3(C)C)cn1 [Example 31, 3,3-Dimethyl-1-(5-methyl-6-morpholinopyridin-2-yl)-6-(2-methylpyrimidin-5-yl)indolin-2-one]	7.40
Cc1ncc(-c2ccc3c(c2)N(c2cccc4[nH]ccc24)C(=O)C3(C)C)cn1 [Example 33, 1-(1H-Indol-4-yl)-3,3-dimethyl-6-(2-methylpyrimidin-5-yl)indolin-2-one]	6.13
Cc1ncc(-c2ccc3c(c2)N(c2ccc4cc[nH]c4n2)C(=O)C3(C)C)cn1 [Example 58, 3,3-Dimethyl-6-(2-methylpyrimidin-5-yl)-1-(1H-pyrrolo [2,3-b]pyridin-6-yl)indolin-2-one]	6.61
Cc1ncc(-c2ccc3c(c2)N(c2ccc4c(c2)NC(=O)C4(C)C)C(=O)C3(C)C)cn1 [Example 44, 3,3,3′,3′-Tetramethyl-6-(2-methylpyrimidin-5-yl)-[1,6′-biindoline]-2,2′-dione]	6.89
Cc1ncc(-c2ccc3c(c2)N(c2cc4c(cn2)C(C)(C)C(=O)N4)C(=O)C3(C)C)cn1 [Example 43, 6-(3,3-Dimethyl-6-(2-methylpyrimidin-5-yl)-2-oxoindolin-1-yl)-3,3-dimethyl-1H-pyrrolo[3,2-c]pyridin-2(3H)-one]	6.41
Cc1ncc(-c2ccc3c(c2)N(c2cccc(N4CCOCC4)n2)C(=O)C3(C)C)cn1 [Example 27, 3,3-Dimethyl-6-(2-methylpyrimidin-5-yl)-1-(6-morpholinopyridin-2-yl)indolin-2-one]	7.24
COc1ccc(CN2C(=O)C(C)(C)c3ccc(N4C(=O)C(C)(C)c5ccc(-c6cnc(C)nc6)cc54)cc32)cc1 [Example 42, 1′-(4-Methoxybenzyl)-3,3,3′,3′-tetramethyl-6-(2-methylpyrimidin-5-yl)-[1,6′-biindoline]-2,2′-dione]	6.71
